Assay in all cases: relative viability (nuclei count vs DMSO), 5 days (fraction); higher = more cells survive
Compound in the assay “Vandetanib + Olaparib”: COc1cc2/c(=N/c3ccc(Br)cc3F)nc[nH]c2cc1OCC1CCN(C)CC1 [Vandetanib] + O=C(c1cc(Cc2n[nH]c(=O)c3ccccc23)ccc1F)N1CCN(C(=O)C2CC2)CC1 [Olaparib] (partner 8 µM)
A digest of the protocol:
(§1)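 Cells from lung cancer lines were seeded into 1536-well plates and, one day later, dosed by pin tool. Treatments were either a single drug or a fixed dose of an anchor drug with five library-drug doses (not always all listed) in √10 steps. After 5 days, nuclei were stained in a one-step fixation (final 0.05% Triton X-100, 1% formaldehyde, 1 ug/ml Hoechst) and counted on 4× images, and relative viability is the treated-to-vehicle nuclei ratio, as the median of duplicate plates.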

Compound in the assay “Vandetanib + OSI-027”: COc1cc2/c(=N/c3ccc(Br)cc3F)nc[nH]c2cc1OCC1CCN(C)CC1 [Vandetanib] + COc1cccc2cc(-c3nc([C@H]4CC[C@H](C(=O)O)CC4)n4ncnc(N)c34)[nH]c12 [OSI-027] (partner 0.5 µM)
A digest of the protocol:
as §1

Compound in assay [1]: C1=CC=C2C(=C1)N=C(S2)C(C#N)C3=NC(=NC=C3)NCCC4=CN=CC=C4 + Cc1nc(Nc2ncc(C(=O)Nc3c(C)cccc3Cl)s2)cc(N2CCN(CCO)CC2)n1 [Dasatinib] (partner 0.075 µM)
In a few lines: as §1

Compound in the assay “CUDC-101 + Linsitinib”: C#Cc1cccc(Nc2ncnc3cc(OC)c(OCCCCCCC(=O)NO)cc23)c1 [CUDC-101] + C[C@]1(O)C[C@@H](c2nc(-c3ccc4ccc(-c5ccccc5)nc4c3)c3c(N)nccn32)C1 [Linsitinib] (partner 1 µM)
A digest of the protocol: as §1

For NCI-H520, the relative viability in the assay with Vandetanib + Olaparib (first compound 0.02 µM) is 0.299; with Vandetanib + Olaparib (first compound 0.06325 µM) it was 0.343; with Vandetanib + Olaparib (first compound 0.2 µM) it was 0.379; with Vandetanib + Olaparib (first compound 0.6325 µM), 0.35; with Vandetanib + Olaparib (first compound 2 µM), 0.324; with Vandetanib + OSI-027 (first compound 0.02 µM), 0.219. Moreover, the relative viability is 0.226 in the assay with Vandetanib + OSI-027 (first compound 0.06325 µM); 0.311 with Vandetanib + OSI-027 (first compound 0.2 µM); 0.268 with Vandetanib + OSI-027 (first compound 0.6325 µM); 0.271 with Vandetanib + OSI-027 (first compound 2 µM); 0.231 in assay [1] (first compound 0.005 µM); 0.158 in assay [1] (first compound 0.01581 µM). For the same cell line, the relative viability in assay [1] (first compound 0.05 µM) was 0.188; in assay [1] (first compound 0.1581 µM), 0.324; in assay [1] (first compound 0.5 µM), 0.18; with CUDC-101 + Linsitinib (first compound 0.01 µM) it was 0.997; in the assay with CUDC-101 + Linsitinib (first compound 0.1 µM), 1.05; with CUDC-101 + Linsitinib (first compound 0.3162 µM) it was 0.982. The relative viability with CUDC-101 + Linsitinib (first compound 1 µM) is 0.485.

For the cell line NCI-H596, the relative viability in the assay with Vandetanib + Olaparib (first compound 0.02 µM) is 0.616; with Vandetanib + Olaparib (first compound 0.06325 µM) it was 0.62; with Vandetanib + Olaparib (first compound 0.2 µM), 0.726; in the assay with Vandetanib + Olaparib (first compound 0.6325 µM), 0.655; with Vandetanib + Olaparib (first compound 2 µM) it was 0.705; with Vandetanib + OSI-027 (first compound 0.02 µM) it was 0.751. Also, the relative viability came out at 0.674 with Vandetanib + OSI-027 (first compound 0.06325 µM); 0.665 with Vandetanib + OSI-027 (first compound 0.2 µM); 0.726 with Vandetanib + OSI-027 (first compound 0.6325 µM); 0.74 with Vandetanib + OSI-027 (first compound 2 µM); 0.559 in assay [1] (first compound 0.005 µM); 0.559 in assay [1] (first compound 0.01581 µM). Moreover, the relative viability in assay [1] (first compound 0.05 µM) amounted to 0.534; in assay [1] (first compound 0.1581 µM), 0.526; in assay [1] (first compound 0.5 µM), 0.619; with CUDC-101 + Linsitinib (first compound 0.01 µM) it was 1.08; in the assay with CUDC-101 + Linsitinib (first compound 0.03162 µM), 0.923; with CUDC-101 + Linsitinib (first compound 0.1 µM), 1.03. Also, the relative viability with CUDC-101 + Linsitinib (first compound 0.3162 µM) amounted to 1.13; with CUDC-101 + Linsitinib (first compound 1 µM), 0.882.

With NCI-H647, the relative viability with Vandetanib + Olaparib (first compound 0.02 µM) worked out at 0.626; with Vandetanib + Olaparib (first compound 0.06325 µM) it was 0.633; with Vandetanib + Olaparib (first compound 0.2 µM), 0.547; with Vandetanib + Olaparib (first compound 0.6325 µM), 0.502; with Vandetanib + Olaparib (first compound 2 µM), 0.454; with Vandetanib + OSI-027 (first compound 0.02 µM), 0.572. Besides, the relative viability in the assay with Vandetanib + OSI-027 (first compound 0.06325 µM) was 0.554; with Vandetanib + OSI-027 (first compound 0.2 µM), 0.73; with Vandetanib + OSI-027 (first compound 0.6325 µM), 0.596; with Vandetanib + OSI-027 (first compound 2 µM) it was 0.674; in assay [1] (first compound 0.005 µM), 0.128; in assay [1] (first compound 0.01581 µM), 0.188. Further, the relative viability in assay [1] (first compound 0.05 µM) was 0.219; in assay [1] (first compound 0.1581 µM) it was 0.24; in assay [1] (first compound 0.5 µM), 0.135; with CUDC-101 + Linsitinib (first compound 0.01 µM), 1.23; in the assay with CUDC-101 + Linsitinib (first compound 0.03162 µM) it was 1.03; with CUDC-101 + Linsitinib (first compound 0.1 µM), 1.18. Besides, the relative viability came to 1.1 with CUDC-101 + Linsitinib (first compound 0.3162 µM) and 1.12 in the assay with CUDC-101 + Linsitinib (first compound 1 µM).

Regarding NCI-H650, the relative viability in the assay with Vandetanib + Olaparib (first compound 0.02 µM) is 0.359; with Vandetanib + Olaparib (first compound 0.06325 µM), 0.361; with Vandetanib + Olaparib (first compound 0.2 µM) it was 0.392; in the assay with Vandetanib + Olaparib (first compound 0.6325 µM) it was 0.409; with Vandetanib + Olaparib (first compound 2 µM) it was 0.445; in the assay with Vandetanib + OSI-027 (first compound 0.02 µM) it was 0.491. Also, the relative viability in the assay with Vandetanib + OSI-027 (first compound 0.06325 µM) worked out at 0.531; with Vandetanib + OSI-027 (first compound 0.6325 µM), 0.521; in the assay with Vandetanib + OSI-027 (first compound 2 µM) it was 0.447; in assay [1] (first compound 0.005 µM), 0.43; in assay [1] (first compound 0.05 µM), 0.405; in assay [1] (first compound 0.1581 µM), 0.589. The relative viability turned out to be 0.476 in assay [1] (first compound 0.5 µM); 0.992 in the assay with CUDC-101 + Linsitinib (first compound 0.01 µM); 0.876 with CUDC-101 + Linsitinib (first compound 0.03162 µM); 1.04 with CUDC-101 + Linsitinib (first compound 0.1 µM); 0.662 in the assay with CUDC-101 + Linsitinib (first compound 0.3162 µM); 0.688 in the assay with CUDC-101 + Linsitinib (first compound 1 µM).

For NCI-H661, the relative viability with Vandetanib + Olaparib (first compound 0.02 µM) is 0.793; with Vandetanib + Olaparib (first compound 0.06325 µM) it was 0.696; with Vandetanib + Olaparib (first compound 0.2 µM) it was 0.726; in the assay with Vandetanib + Olaparib (first compound 0.6325 µM), 0.759; with Vandetanib + Olaparib (first compound 2 µM), 0.735; with Vandetanib + OSI-027 (first compound 0.02 µM) it was 0.721. Further, the relative viability in the assay with Vandetanib + OSI-027 (first compound 0.06325 µM) was 0.66; with Vandetanib + OSI-027 (first compound 0.2 µM) it was 0.668; with Vandetanib + OSI-027 (first compound 0.6325 µM) it was 0.58; with Vandetanib + OSI-027 (first compound 2 µM), 0.629; in assay [1] (first compound 0.005 µM), 0.778; in assay [1] (first compound 0.01581 µM) it was 0.785. The relative viability in assay [1] (first compound 0.05 µM) came out at 0.817; in assay [1] (first compound 0.1581 µM), 0.917; in assay [1] (first compound 0.5 µM), 0.805; with CUDC-101 + Linsitinib (first compound 0.01 µM) it was 0.64; with CUDC-101 + Linsitinib (first compound 0.03162 µM), 0.487; in the assay with CUDC-101 + Linsitinib (first compound 0.1 µM), 0.74. Besides, the relative viability with CUDC-101 + Linsitinib (first compound 0.3162 µM) was determined as 0.681; in the assay with CUDC-101 + Linsitinib (first compound 1 µM), 0.675.

As to NCI-H727, the relative viability amounted to 0.727 with Vandetanib + Olaparib (first compound 0.02 µM); 0.68 with Vandetanib + Olaparib (first compound 0.06325 µM); 0.662 with Vandetanib + Olaparib (first compound 0.2 µM); 0.739 in the assay with Vandetanib + Olaparib (first compound 0.6325 µM); 0.621 with Vandetanib + Olaparib (first compound 2 µM); 0.533 with Vandetanib + OSI-027 (first compound 0.02 µM). Moreover, the relative viability is 0.551 with Vandetanib + OSI-027 (first compound 0.06325 µM); 0.536 with Vandetanib + OSI-027 (first compound 0.2 µM); 0.545 with Vandetanib + OSI-027 (first compound 0.6325 µM); 0.446 with Vandetanib + OSI-027 (first compound 2 µM); 0.387 in assay [1] (first compound 0.01581 µM); 0.368 in assay [1] (first compound 0.05 µM). In addition, the relative viability was found to be 0.413 in assay [1] (first compound 0.1581 µM); 0.347 in assay [1] (first compound 0.5 µM); 0.204 with CUDC-101 + Linsitinib (first compound 0.01 µM); 0.207 with CUDC-101 + Linsitinib (first compound 0.03162 µM); 0.308 in the assay with CUDC-101 + Linsitinib (first compound 0.1 µM); 0.396 in the assay with CUDC-101 + Linsitinib (first compound 0.3162 µM). Moreover, the relative viability with CUDC-101 + Linsitinib (first compound 1 µM) came out at 0.242.

As for NCI-H838, the relative viability with Vandetanib + Olaparib (first compound 0.02 µM) amounted to 0.773; with Vandetanib + Olaparib (first compound 0.06325 µM), 0.769; with Vandetanib + Olaparib (first compound 0.2 µM), 0.776; in the assay with Vandetanib + Olaparib (first compound 0.6325 µM), 0.764; in the assay with Vandetanib + Olaparib (first compound 2 µM), 0.74; in the assay with Vandetanib + OSI-027 (first compound 0.02 µM) it was 0.409. Also, the relative viability with Vandetanib + OSI-027 (first compound 0.06325 µM) is 0.379; with Vandetanib + OSI-027 (first compound 0.2 µM), 0.37; with Vandetanib + OSI-027 (first compound 0.6325 µM) it was 0.333; in the assay with Vandetanib + OSI-027 (first compound 2 µM), 0.424; in assay [1] (first compound 0.005 µM) it was 0.204; in assay [1] (first compound 0.01581 µM) it was 0.28. Moreover, the relative viability was found to be 0.325 in assay [1] (first compound 0.05 µM); 0.264 in assay [1] (first compound 0.1581 µM); 0.262 in assay [1] (first compound 0.5 µM); 1.08 with CUDC-101 + Linsitinib (first compound 0.01 µM); 0.85 with CUDC-101 + Linsitinib (first compound 0.03162 µM); 1.08 in the assay with CUDC-101 + Linsitinib (first compound 0.1 µM). Further, the relative viability with CUDC-101 + Linsitinib (first compound 0.3162 µM) stood at 1.06; with CUDC-101 + Linsitinib (first compound 1 µM), 0.898.

For the origin of these results see the supplement of paper PMC10307832.
